Reference: patent publication US9394331B2, “2′-spiro-nucleosides and derivatives thereof useful for treating hepatitis C virus and dengue virus infections” (priority 2010, dated 2016)
Like-named read-outs stand apart in the source and are kept apart here.

Columns and labels:
[1] = target: wild type NS5B Genotype 1b (Hepatitis C virus genotype 1b (isolate Con1) (HCV), UniProt Q9WMX2); test: HCV NS5B polymerase reaction, wild type; assay type: biochemical; settings: Table 5, nucleoside triphosphates
wild type NS5B Genotype 1b, sequence (Q9WMX2 2420-3010): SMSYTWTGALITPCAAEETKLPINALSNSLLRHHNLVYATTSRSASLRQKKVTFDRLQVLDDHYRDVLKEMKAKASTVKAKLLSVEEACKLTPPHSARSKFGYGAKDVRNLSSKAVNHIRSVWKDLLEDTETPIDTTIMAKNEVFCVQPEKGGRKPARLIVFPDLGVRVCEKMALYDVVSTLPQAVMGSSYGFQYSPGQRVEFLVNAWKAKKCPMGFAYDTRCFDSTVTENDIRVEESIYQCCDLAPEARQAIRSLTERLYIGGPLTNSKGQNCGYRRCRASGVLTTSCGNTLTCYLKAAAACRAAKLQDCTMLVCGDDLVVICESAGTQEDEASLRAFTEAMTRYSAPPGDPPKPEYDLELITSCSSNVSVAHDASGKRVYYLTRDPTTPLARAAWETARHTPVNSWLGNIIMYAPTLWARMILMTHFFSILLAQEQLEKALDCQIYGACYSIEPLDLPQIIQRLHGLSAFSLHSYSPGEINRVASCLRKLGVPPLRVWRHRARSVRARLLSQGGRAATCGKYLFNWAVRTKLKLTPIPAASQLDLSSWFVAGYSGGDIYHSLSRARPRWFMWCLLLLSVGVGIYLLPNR

[2] = system: Huh7, HepG2, BxPC3, or CEM cells; test: Cell cytotoxicity assay (MTS); assay type: cell-based; settings: Table 3; cell line not stated
Experimental: (§1) Cell cytotoxicity assays. Each compound (serially diluted from 100 μM) was added to Huh7 (2×10^3 cells/well), HepG2 (2×10^3 cells/well), BxPC3 (2×10^3 cells/well), or CEM (5×10^3 cells/well) cells and allowed to incubate for 8 days at 37° C. A medium only control was used to determine the minimum absorbance value […]. At the end of the growth period, MTS dye from the CellTiter 96 Aqueous One Solution Cell Proliferation Assay kit (Promega) was added to each well and the plate was incubated for an additional 2 hours. The absorbance at 490 nm was read with a Victor3 plate reader (Perkin Elmer) using the medium only control wells as blanks. The 50% inhibition value (CC50) was determined by comparing the absorbance in wells containing cells and test compound to untreated cell control wells.

[3] = Cytotoxicity reported with the dengue assay; assay type: cell-based; settings: Table 6; cell line not stated
[4] = system: Dengue 2 strain New Guinea C; test: Dengue CPE assay; assay type: cell-based, Dengue virus 2; settings: Table 6, BHK-21 cells, 3 days, 50% cells surviving, read-out: EC50, activity against dengue virus
Experimental: Dengue CPE Assay. To measure cytopathic effect of Dengue virus 2, BHK-21 ([…], CCL-10 ATCC Manassas, Va.) cells were seeded at a density of 20,000 cells/well in a 96-well black/clear bottom plates (Becton Dickinson, Franklin Lakes, N.J.) one day prior to start of the assay and allowed to attach overnight in EMEM (ATCC Manassas, Va.) +10% FBS (Invitrogen, Carlsbad, Calif.) at 37° C. in a humidified 5% CO2 atmosphere. The next day, the medium was removed and the cells were infected with Dengue 2 strain New Guinea C (VR-1584, ATCC Manassas, Va.) at an MOI of 0.08 pfu/cell for two hours in 50 μL EMEM+2% FBS. For both the single point and dose response assays, compounds (2× concentration) were diluted in EMEM+2% FBS and 50 μL was added to infected cells without removing virus. Cells were incubated for 3 days at 37° C. in a humidified 5% CO2 atmosphere. The medium was aspirated and 50 μL of CellTiter-Glo (Promega, Madison, Wis.) was added to each well and read for 0.1 seconds on a Perkin Elmer Victor3 (Waltham, Mass.) plate reader. Percent survival was determined by subtracting the average value of infected control wells and normalizing to the non-infected wells. The effective concentration was calculated from the dose response data by forecasting 50% cells surviving with drug treatment.

[5] = system: HCV replicon; test: HCV replicon assay (Clone A cells and ET-lunet cells, HCV RNA by real time PCR); assay type: cell-based, hepatitis C virus; settings: Table 3, HCV 1b replicon; for EC50: read-out: EC50, anti-HCV 1b activity; for EC90: read-out: EC90, anti-HCV 1b activity
Experimental: HCV replicon assay. HCV replicon assays using Clone A cells and ET-lunet cells were performed as described previously. L. J. Stuyver et al. Antimicrob. Agents Chemother. 2004, 48, 651-654. Briefly, Clone A cells and ET-lunet cells were seeded at a density of 1500 and 3000 cells per well in a 96-well plate, respectively. Test compounds serially diluted in culture medium without G418 were added to cells. Plates were incubated at 37° C. in a 5% CO2 atmosphere for 4 days. Inhibition of HCV RNA replication was determined by quantitative real time PCR. See, e.g., L. J. Stuyver et al. Antiviral Chem. Chemother. 2006, 17, 79-87.
To express the antiviral effectiveness of a compound, the threshold RT-PCR cycle of the test compound was subtracted from the average threshold RT-PCR cycle of the no-drug control (ΔCtHCV). A ΔCt of 3.3 equals a 1-log 10 reduction (equal to the 90% effective concentration [EC90]) in replicon RNA levels. The cytotoxicity of the test compound could also be expressed by calculating the ΔCtrRNA values. The ΔΔCt specificity parameter could then be introduced (ΔCtHCV-ΔCtrRNA), in which the levels of HCV RNA are normalized for the rRNA levels and calibrated against the no-drug control.

[6] = target: S282T NS5B Genotype 1b (Hepatitis C virus genotype 1b (isolate Con1) (HCV), UniProt Q9WMX2, S2701T); test: HCV NS5B polymerase reaction, S282T mutant; assay type: biochemical; settings: Table 5, nucleoside triphosphates
S282T NS5B Genotype 1b, sequence (Q9WMX2 2420-3010 S2701T): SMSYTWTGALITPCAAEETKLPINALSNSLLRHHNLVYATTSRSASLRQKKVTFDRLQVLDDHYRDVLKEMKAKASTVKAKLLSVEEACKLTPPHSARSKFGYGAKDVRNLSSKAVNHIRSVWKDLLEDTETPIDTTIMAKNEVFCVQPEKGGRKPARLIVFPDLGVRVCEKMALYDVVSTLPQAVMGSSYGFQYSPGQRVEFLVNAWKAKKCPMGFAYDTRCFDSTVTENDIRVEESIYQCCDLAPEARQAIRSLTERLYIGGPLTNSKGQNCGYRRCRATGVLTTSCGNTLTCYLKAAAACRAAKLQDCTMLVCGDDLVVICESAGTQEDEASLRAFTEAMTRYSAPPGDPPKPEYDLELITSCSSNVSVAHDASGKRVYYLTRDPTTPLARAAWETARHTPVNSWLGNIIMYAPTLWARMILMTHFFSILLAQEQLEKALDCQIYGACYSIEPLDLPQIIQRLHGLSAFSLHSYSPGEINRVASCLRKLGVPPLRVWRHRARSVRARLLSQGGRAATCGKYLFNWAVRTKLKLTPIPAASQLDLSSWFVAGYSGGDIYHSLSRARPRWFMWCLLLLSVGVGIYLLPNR
Experimental: The HCV NS5B reaction was performed in a 20 μL mixture containing varying concentrations of the test compound, 1 μM of all four natural ribonucleotides, [α-^32P]UTP, 20 ng/μL of genotype 1b (−) IRES RNA template, 1 unit/μL of SUPERase•In (Ambion, Austin, Tex.), 40 ng/μL of wild type or S282T NS5B Genotype 1b, 1 mM MgCl2, 0.75 mM MnCl2, and 2 mM DTT in 50 mM Hepes buffer (pH 7.5). The reaction was quenched by adding 80 μL of stop solution (12.5 mM EDTA, 2.25 M NaCl, and 225 mM sodium citrate) after incubating at 27° C. for 30 minutes. The radioactive RNA products were separated from unreacted substrates by passing the quenched reaction mixture through a Hybond N+ membrane (GE Healthcare, Piscataway, N.J.) using a dot-blot apparatus. The RNA products were retained on the membrane and the free nucleotides were washed out. The membrane was washed 4 times with a solution containing 0.6 M NaCl and 60 mM sodium citrate. After rinsing the membrane with water followed by ethanol, the membrane was exposed to a phosphorscreen and the products were visualized and quantified using a phosphorimager. The IC50 values were calculated using GraFit program version 5 (Erithacus Software, Horley, Surrey, UK). All the reactions were done in duplicate and the results were reported as IC50±standard error.

[7] = Cell cytotoxicity assay (MTS); assay type: cell-based; settings: human; Table 3; cell line not stated; read-out: CC50
Experimental: as §1

## Nc1ccn(C2OC(CO)[C@@H](O)[C@@]23CCO3)c(=O)n1 (stereo partly drawn) [compound 139]
[1]
  IC50: > 100 µM

## COc1nc(N)nc2c1ncn2C1OC(COP(=O)(N[C@@H](C)C(=O)OCC(C)(C)C)Oc2ccccc2)[C@@H](O)[C@]12CCO2 (stereo partly drawn) [compound 121]
[2]
  CC50: > 20 µM
[3]
  CC50: > 20 µM
[4]
  EC50: 2.26 µM
[5]
  EC50: 9.31 µM
  EC90: 18.5 µM

## Nc1ccn(C2OC(CO)[C@@H](O)[C@]23CCO3)c(=O)n1 (stereo partly drawn) [compound 140]
[6]
  IC50: 56.7 µM
[1]
  IC50: > 8.48 µM

## Nc1ccn(C2OC(CO)[C@@H](O)[C@]23CCCO3)c(=O)n1 (stereo partly drawn) [compound 137]
[6]
  IC50: > 100 µM
[1]
  IC50: > 45.3 µM

## COc1nc(N)nc2c1ncn2C1OC(COP(=O)(N[C@@H](C)C(=O)OC2CCCC2)Oc2ccccc2)[C@@H](O)[C@]12CCO2 (stereo partly drawn) [compound 129]
[2]
  CC50: > 20 µM
[3]
  CC50: > 20 µM
[4]
  EC50: 2.36 µM
[5]
  EC50: 0.67 µM
  EC90: 1.97 µM

## CCOC(=O)[C@H](C)NP(=O)(OCC1OC(n2cnc3c(OC)nc(N)nc32)[C@@]2(CCO2)[C@@H]1O)Oc1ccccc1 (stereo partly drawn) [compound 122]
[7]
  CC50 at 8 days: > 20 µM
[3]
  CC50: > 20 µM
[4]; Dengue virus, BHK-21, 72 h
  EC50: 5.84 µM
[5]; Hepatitis C virus
  EC50: 0.857 µM
  EC90: 3 µM

## O=c1ccn(C2OC(CO)[C@@H](O)[C@@]23CCCO3)c(=O)[nH]1 (stereo partly drawn) [compound 135]
[1]
  IC50: > 100 µM

## COc1nc(N)nc2c1ncn2C1OC(COP(=O)(N[C@@H](C)C(=O)OCC(C)(C)C)Oc2cccc3ccccc23)[C@@H](O)[C@]12CCO2 (stereo partly drawn) [compound 123]
[7]
  CC50 at 8 days: > 20 µM
[3]
  CC50: > 20 µM
[4]; Dengue virus, BHK-21, 72 h
  EC50: 1.74 µM
[5]; Hepatitis C virus
  EC50: 0.31 µM
  EC90: 0.853 µM

## O=c1ccn(C2OC(CO)[C@@H](O)[C@]23CCO3)c(=O)[nH]1 (stereo partly drawn) [compound 136]
[6]
  IC50: > 100 µM
[1]
  IC50: 39.4 µM

## COc1nc(N)nc2c1ncn2C1OC(COP(=O)(N[C@@H](C)C(=O)OC2CCCC2)Oc2ccccc2)[C@@H](O)[C@]12CCO2 (stereo partly drawn) [compound 128]
[7]
  CC50 at 8 days: > 20 µM
[3]
  CC50: > 20 µM
[4]; Dengue virus, BHK-21, 72 h
  EC50: 2.79 µM
[5]; Hepatitis C virus
  EC50: 0.45 µM
  EC90: 1.09 µM

## CCCCOC(=O)[C@H](C)NP(=O)(OCC1OC(n2cnc3c(OC)nc(N)nc32)[C@@]2(CCO2)[C@@H]1O)Oc1ccccc1 (stereo partly drawn) [compound 127]
[2]
  CC50: > 20 µM
[3]
  CC50: > 20 µM
[4]
  EC50: 1.61 µM
[5]
  EC50: 3.1 µM
  EC90: 6.45 µM

## CCCCOC(=O)[C@H](C)NP(=O)(OCC1OC(n2cnc3c(OC)nc(N)nc32)[C@@]2(CCO2)[C@@H]1O)Oc1ccccc1 (stereo partly drawn) [compound 126]
[7]
  CC50 at 8 days: > 20 µM
[3]
  CC50: > 20 µM
[4]; Dengue virus, BHK-21, 72 h
  EC50: 2.36 µM
[5]
  EC50: 0.274 µM
  EC90: 0.7 µM

## Nc1ccn(C2OC(CO)[C@@H](O)[C@@]23CCCO3)c(=O)n1 (stereo partly drawn) [compound 138]
[1]
  IC50: > 100 µM

## COc1nc(N)nc2c1ncn2C1OC(COP(=O)(N[C@@H](C)C(=O)OCc2ccccc2)Oc2ccccc2)[C@@H](O)[C@]12CCO2 (stereo partly drawn) [compound 131]
[2]
  CC50: > 20 µM
[3]
  CC50: > 20 µM
[4]
  EC50: 1.49 µM
[5]
  EC50: 11.7 µM
  EC90: > 20 µM

## COc1nc(N)nc2c1ncn2C1OC(COP(=O)(N[C@@H](C)C(=O)OCC(C)(C)C)Oc2ccccc2)[C@@H](O)[C@]12CCO2 (stereo partly drawn) [compound 120]
[7]
  CC50 at 8 days: > 20 µM
[3]
  CC50: > 20 µM
[4]; Dengue virus, BHK-21, 72 h
  EC50: 1.88 µM
[5]
  EC50: 0.39 µM
  EC90: 0.676 µM

## COc1nc(N)nc2c1ncn2C1OC(COP(=O)(N[C@@H](C)C(=O)OC(C)C)Oc2ccccc2)[C@@H](O)[C@]12CCO2 (stereo partly drawn) [compound 119]
[2]
  CC50: > 20 µM
[3]
  CC50: > 20 µM
[4]; Dengue virus, BHK-21, 72 h
  EC50: 8.64 µM
[5]
  EC50: 4.52 µM
  EC90: > 20 µM

## COc1nc(N)nc2c1ncn2C1OC(COP(=O)(N[C@@H](C)C(=O)OC(C)C)Oc2ccccc2)[C@@H](O)[C@]12CCO2 (stereo partly drawn) [compound 118]
[7]
  CC50 at 8 days: > 20 µM
[3]
  CC50: > 20 µM
[4]
  EC50: 5.06 µM
[5]
  EC50: 1.49 µM
  EC90: 3.44 µM

## COc1nc(N)nc2c1ncn2C1OC(COP(=O)(N[C@@H](C)C(=O)OCC(C)C)Oc2ccccc2)[C@@H](O)[C@]12CCO2 (stereo partly drawn) [compound 125]
[2]
  CC50: > 20 µM
[3]
  CC50: > 20 µM
[4]
  EC50: 1.98 µM
[5]
  EC50: 4.42 µM
  EC90: 8.45 µM
